Assays:
[1] = tested on: Prostate-specific Antigen (PSA) production in 22RV1 cells; assay: PSA assay: inhibition of PSA production in 22RV1 cells (ELISA); format: cell-based; settings: Homo sapiens, 72 h, R1881 1 ng/ml, three days
Experimental: (§1) PSA Assay (Inhibition Test of the Compound of the Present Invention on Prostate-Specific Antigen (PSA) Production in Various Prostate Cancer Cells)
Androgen dependent LNCaP and 22RV1 cells were purchased from the American Type Culture Collection (ATCC, Manassas, Va.). These cells were grown in RPMI 1640 medium supplemented with 10% fetal bovine serum (FBS), 100 U/mL penicillin, 100 μg/mL streptomycin, and 0.25 μg/mL amphotericin B. The cells were maintained at 37° C. and 5% CO2. LNCaP cells between passage 20 and 35, and 22RV1 cells between passage 30 and 50 were used for experiments. LNCaP is a hormone sensitive cell line, while 22RV1 is a hormone refractory prostate cancer cell line, which derived from a primary prostate tumor. This cell line was isolated from a xenograft (CWR22R-2152) that was serially propagated in mice after castration-induced regression and relapse of the parental, androgen-dependent CWR xenograft. For the PSA assay, human prostate cancer cells LNCaP or 22RV1 were seeded in a 96-well plate at a concentration of 5000 cells/100 μl/well. On the following day, Methyltrienolone (R1881, AR agonist) (final concentration 1 ng/ml), test compounds or bicalutamide (Casodex®, AstraZeneca) (final concentration 0.005 to 20 μM) were added. Three days after the addition, the concentration of PSA in the supernatant of the culture solution was measured by ELISA. ELISAs for human PSA in culture medium were performed using the ultra-sensitive assay procedure and reagents in the Active™ PSA assay kit (Diagnostic Systems Laboratories Inc., Webster, Tex.). Culture medium and standards (200 μl/well) were incubated in antibody-coated plates for 2 h at room temperature on a Titer plate shaker at 500-600 rpm. Wells were then washed five times. The HRP conjugate was diluted 1:20 with assay buffer, and 100 μl was added to all wells. The plates were incubated for 30 min at room temperature on the shaker and washed as before, and 100 μl TMB (3,3′,5,5′-tetramethylbenzidine, 0.4 g/l) was added. The plates were incubated for 10 min on the shaker, and the reaction was terminated with 100 μl stop solution. The plates were read using a plate reader at 450 nm with a 650 nm reference filter. PSA levels were normalized for differences in growth of LNCaP or 22RV1 cells following various treatments as determined by the MTS assay. IC50 of PSA was calculated based on a seven point assay (concentrations of tested compound) and expressed as micromolar (uM). […] ND means not determined

[2] = tested on: LNCaP cells; assay: Cell viability assay, LNCaP cells; format: cell-based; settings: Homo sapiens, LNCaP, 48 h, read-out: Inhibition of cell viability, LNCaP % inhibition at 2.5 uM
Experimental: (§2) LNCaP and 22RV1 cells were maintained in RPMI 1640 medium supplemented with 10% fetal bovine serum (FBS), 100 U/mL penicillin, 100 μg/mL streptomycin, and 0.25 μg/mL amphotericin B, splitting cells when they reached 80-90% confluence. In order to test compounds, 10,000 cells/well were plated in 96 cell culture plates using 100 ul/well plating medium, cultured overnight at 37° C. in a cell culture incubator. After carefully remove plating medium, 80 ul/well of pre-warmed assay medium was added, followed by adding 10 ul/well test compounds or bicalutamide (final concentration from 20 uM to 0.1 uM), incubated at 37° C. for 30 minutes, then adding 10 ul/well freshly prepared Methyltrienolone (R1881, AR agonist) (final concentration 1 ng/ml) to each well, incubate at 37° C. for 48-hour. At the end of incubation, 20 μl MTT (2.5 mg/ml in PBS) was added to each well, and the cells were further incubated for 2 h at 37 C to allow a complete reaction between the dye and the enzyme mitochondrial dehydrogenase in the viable cells. After removal of the residual dye and medium, 100 μl dimethylsulfoxide was added to each well, and the absorbance at 570 nm was measured with an microplate reader. The fold induction over background by 1 nM R1881 in the absence of test compounds is standardized as 100% and experimental result is expressed as percentage of inhibition by testing compounds at 2.5 micromolar (uM).

[3] = tested on: 22RV1 cells; assay: Cell viability assay, 22RV1 cells; format: cell-based, human; settings: Homo sapiens, 22Rv1, 48 h, read-out: Inhibition of cell viability, 22RV1 % inhibition at 2.5 uM
Experimental: as §2

[4] = tested on: Prostate-specific Antigen (PSA) production in LNCaP cells; assay: PSA assay: inhibition of PSA production in LNCaP cells (ELISA); format: cell-based; settings: Homo sapiens, 72 h, R1881 1 ng/ml, three days, seven point assay
Experimental: as §1
Androgen dependent LNCaP and 22RV1 cells were purchased from the American Type Culture Collection (ATCC, Manassas, Va.). These cells were grown in RPMI 1640 medium supplemented with 10% fetal bovine serum (FBS), 100 U/mL penicillin, 100 μg/mL streptomycin, and 0.25 μg/mL amphotericin B. The cells were maintained at 37° C. and 5% CO2. LNCaP cells between passage 20 and 35, and 22RV1 cells between passage 30 and 50 were used for experiments. LNCaP is a hormone sensitive cell line, while 22RV1 is a hormone refractory prostate cancer cell line, which derived from a primary prostate tumor. This cell line was isolated from a xenograft (CWR22R-2152) that was serially propagated in mice after castration-induced regression and relapse of the parental, androgen-dependent CWR xenograft. For the PSA assay, human prostate cancer cells LNCaP or 22RV1 were seeded in a 96-well plate at a concentration of 5000 cells/100 μl/well. On the following day, Methyltrienolone (R1881, AR agonist) (final concentration 1 ng/ml), test compounds or bicalutamide (Casodex®, AstraZeneca) (final concentration 0.005 to 20 μM) were added. Three days after the addition, the concentration of PSA in the supernatant of the culture solution was measured by ELISA. ELISAs for human PSA in culture medium were performed using the ultra-sensitive assay procedure and reagents in the Active™ PSA assay kit (Diagnostic Systems Laboratories Inc., Webster, Tex.). Culture medium and standards (200 μl/well) were incubated in antibody-coated plates for 2 h at room temperature on a Titer plate shaker at 500-600 rpm. Wells were then washed five times. The HRP conjugate was diluted 1:20 with assay buffer, and 100 μl was added to all wells. The plates were incubated for 30 min at room temperature on the shaker and washed as before, and 100 μl TMB (3,3′,5,5′-tetramethylbenzidine, 0.4 g/l) was added. The plates were incubated for 10 min on the shaker, and the reaction was terminated with 100 μl stop solution. The plates were read using a plate reader at 450 nm with a 650 nm reference filter. PSA levels were normalized for differences in growth of LNCaP or 22RV1 cells following various treatments as determined by the MTS assay. IC50 of PSA was calculated based on a seven point assay (concentrations of tested compound) and expressed as micromolar (uM). Results on 22RV1 cells are shown as percent inhibition at 2 micromolar (uM). ND means not determined

Structure (SMILES)	inhibition at 2 µM [1] [%]	cytotoxicity at 2.5 µM [2] [%]	cytotoxicity at 2.5 µM [3] [%]	IC50 [4] [nM]
CNC(=O)c1ccc(N2C(=S)N(c3ccc(C#N)cc3Cl)C(=O)C23CCC3)cc1F [Example 1, 4-[7-(2-Chloro-4-cyano-phenyl)-8-oxo-6-thioxo-5,7-diaza-spiro[3.4]oct-5-yl]-2-fluoro-N-methyl-benzamide]	48	70	31	2400
Cc1ccc(N2C(=S)N(c3ccc(C#N)c(C#N)c3)C(=O)C2(C)C)cc1F [Example 25, 4-[3-(3-Fluoro-4-methyl-phenyl)-4,4-dimethyl-5-oxo-2-thioxo-imidazolidin-1-yl]-phthalonitrile]	82	–	–	290
Cc1ccc(N2C(=S)N(c3ccc(C#N)c(Cl)c3F)C(=O)C2(C)C)cc1 [Example 29, 2-Chloro-4-(4,4-dimethyl-5-oxo-2-thioxo-3-p-tolyl-imidazolidin-1-yl)-3-fluoro-benzonitrile]	78	–	–	280
CNC(=O)c1ccc(N2C(=S)N(c3ccc(C#N)cc3OC(F)(F)F)C(=O)C23CCC3)cc1F [Example 4, 4-[7-(4-Cyano-2-trifluoromethoxy-phenyl)-8-oxo-6-thioxo-5,7-diaza-spiro[3.4]oct-5-yl]-2-fluoro-N-methyl-benzamide]	–	–	–	1400
CNC(=O)c1ccc(N2C(=S)N(c3ccc(C#N)cc3C(F)(F)F)C(=O)C23CCC3)cc1F [Example 7, 4-[7-(4-Cyano-2-trifluoromethyl-phenyl)-8-oxo-6-thioxo-5,7-diaza-spiro[3.4]oct-5-yl]-2-fluoro-N-methyl-benzamide]	–	–	–	1500
Cc1ccc(N2C(=S)N(c3ccc(C#N)c(Cl)c3F)C(=O)C2(C)C)cn1 [Example 17, 2-Chloro-4-[4,4-dimethyl-3-(6-methyl-pyridin-3-yl)-5-oxo-2-thioxo-imidazolidin-1-yl]-3-fluoro-benzonitrile]	76	–	–	310
CNC(=O)c1ccc(N2C(=S)N(c3cc(F)c(C#N)cc3F)C(=O)C23CCC3)cc1F [Example 3, 4-[7-(4-Cyano-2,5-difluoro-phenyl)-8-oxo-6-thioxo-5,7-diaza-spiro[3.4]oct-5-yl]-2-fluoro-N-methyl-benzamide]	21	–	–	2100
CNC(=O)c1ccc(N2C(=S)N(c3ccc(C#N)cc3F)C(=O)C23CCC3)cc1F [Example 5, 4-[7-(4-Cyano-2-fluoro-phenyl)-8-oxo-6-thioxo-5,7-diaza-spiro[3.4]oct-5-yl]-2-fluoro-N-methyl-benzamide]	–	–	–	1400
Cc1ccc(N2C(=S)N(c3ccc(C#N)c(Cl)c3F)C(=O)C2(C)C)cc1F [Example 31, 2-Chloro-3-fluoro-4-[3-(3-fluoro-4-methyl-phenyl)-4,4-dimethyl-5-oxo-2-thioxo-imidazolidin-1-yl]-benzonitrile]	67	–	–	420
CNC(=O)c1ccc(N2C(=S)N(c3ccc(C#N)cc3C)C(=O)C23CCC3)cc1F [Example 6, 4-[7-(4-Cyano-2-methyl-phenyl)-8-oxo-6-thioxo-5,7-diaza-spiro[3.4]oct-5-yl]-2-fluoro-N-methyl-benzamide]	–	–	–	1500
CNC(=O)c1ccc(N2C(=S)N(c3ccc(C#N)c(C#N)c3)C(=O)C23CCC3)cc1F [Example 9, 4-[7-(3,4-Dicyano-phenyl)-8-oxo-6-thioxo-5,7-diaza-spiro[3.4]oct-5-yl]-2-fluoro-N-methyl-benzamide]	64	–	–	980
CNC(=O)c1ccc(N2C(=S)N(c3ccc(C#N)c(OC)c3F)C(=O)C2(C)C)cc1F [Example 22, 4-[3-(4-Cyano-2-fluoro-3-methoxy-phenyl)-5,5-dimethyl-4-oxo-2-thioxo-imidazolidin-1-yl]-2-fluoro-N-methyl-benzamide]	57	–	–	520
COc1c(C#N)ccc(N2C(=O)C(C)(C)N(c3ccc(S(C)(=O)=O)cc3)C2=S)c1F [Example 21, 3-Fluoro-4-[3-(4-methanesulfonyl-phenyl)-4,4-dimethyl-5-oxo-2-thioxo-imidazolidin-1-yl]-2-methoxy-benzonitrile]	–	–	–	1800
Cc1ccc(N2C(=S)N(c3ccc(C#N)c(C(F)(F)F)c3F)C(=O)C2(C)C)cn1 [Example 15, 4-[4,4-Dimethyl-3-(6-methyl-pyridin-3-yl)-5-oxo-2-thioxo-imidazolidin-1-yl]-3-fluoro-2-trifluoromethyl-benzonitrile]	69	–	–	350
CC1(C)C(=O)N(c2ccc(C#N)c(C(F)(F)F)c2F)C(=S)N1c1ccc(S(C)(=O)=O)cc1 [Example 13, 3-Fluoro-4-[3-(4-methanesulfonyl-phenyl)-4,4-dimethyl-5-oxo-2-thioxo-imidazolidin-1-yl]-2-trifluoromethyl-benzonitrile]	61	–	–	520
CC1(C)C(=O)N(c2ccc(C#N)c(Cl)c2F)C(=S)N1c1ccc(S(C)(=O)=O)cc1 [Example 16, 2-Chloro-3-fluoro-4-[3-(4-methanesulfonyl-phenyl)-4,4-dimethyl-5-oxo-2-thioxo-imidazolidin-1-yl]-benzonitrile]	70	–	–	630
CC1(C)C(=O)N(c2ccc(C#N)c(C(F)(F)F)c2F)C(=S)N1c1ccc(C#N)cc1 [Example 14, 4-(4,4-Dimethyl-5-oxo-2-thioxo-3-p-cyanophenyl-imidazolidin-1-yl)-3-fluoro-2-trifluoromethyl-benzonitrile]	71	–	–	490
